Data taken from patent publication US10973834B2, “EP4 inhibitors and use thereof” (Arrys Therapeutics, Inc., priority 2018, dated 2021).

How the values were obtained:
[1] = tested on: CT-26 mouse colon adenocarcinoma; assay: Antitumor activity of Compound B alone and with anti-PD-1 in the CT-26 model; format: in vivo, BALB/c mice
Description: (§1) The antitumor activity of Compound B as a single agent and combined with a mouse anti-PD-1 antibody was evaluated in the CT-26 mouse colon adenocarcinoma model grown in BALB/c mice. Mice were inoculated subcutaneously in the right flank with 5×10^5 tumor cells. When tumors reached an average size of 71 mm^3 (6 days after tumor cell inoculation) dosing was initiated. The dosing regimens in the 8 separate cohorts comprising 10 mice each are as follows: […]

CT26 tumor cells = assay: CT26 re-inoculation of complete responders versus tumor-naive mice; format: in vivo; conditions: complete responders compared with 6 tumor-naive mice
Source text: CT26 tumor cells were inoculated into 6 tumor-naive mice or complete responders of CT26 tumor-bearing mice previously treated with Compound B and anti-PD-1 alone or in combination.

[2] = tested on: CT-26 mouse colon adenocarcinoma; assay: Antitumor activity of Compound B alone and with anti-PD1 in the CT-26 model, additional experiment; format: in vivo, BALB/c mice; conditions: CT-26 tumors; Compound B 15 mg/kg BID po; anti-PD1 10 mg/kg ip BIW; n=7/group; FIG. 5
Description: as §1, with “mouse anti-PD1” for “mouse anti-PD-1”, “BALB/c mice in an additional experiment.” for “BALB/c mice.”, “of 91” for “of 71”, “mm^3” for “mm^3 (6 days after tumor cell inoculation)”, “the 4” for “the 8”, “comprising 7” for “comprising 10”

4T1 mouse breast cancer [3] = assay: Antitumor activity of Compound B alone and with anti-CTLA4 in the 4T1 model; format: in vivo, BALB/c mice; conditions: 4T1 tumors; Compound B 15 mg/kg BID; n=10/group; FIG. 3
Source text: Mice were inoculated subcutaneously in the right flank with 3×10^5 tumor cells. When tumors reached an average size of 100 mm^3 (7 days after tumor cell inoculation) dosing was initiated.

4T1 mouse breast cancer [4] = assay: Antitumor activity of Compound B alone and with anti-PD1 in the 4T1 model, additional experiment; format: in vivo, BALB/c mice; conditions: 4T1 tumors; Compound B 15 mg/kg BID po; anti-PD1 10 mg/kg ip BIW; n=7/group; FIG. 6
Description: The antitumor activity of Compound B as a single agent and combined with a mouse anti-PD1 antibody was evaluated in the 4T1 mouse breast cancer model grown in BALB/c mice in an additional experiment. Mice were inoculated subcutaneously in the right flank with 3×10^5 tumor cells. When tumors reached an average size of 97 mm^3 dosing was initiated. The dosing regimens in the 4 separate cohorts comprising 7 mice each are as follows: […]

CT-26 tumors = assay: Immune cell composition of CT-26 tumors by flow cytometry; format: in vivo, BALB/c mice; conditions: after 7 days of dosing, Compound B 15 mg/kg BID, anti-PD1 10 mg/kg Q3D
Description: The immune cell composition of Compound B as a single agent and combined with a mouse anti-PD1 antibody was evaluated in the CT-26 mouse colon adenocarcinoma model grown in BALB/c mice. Mice were inoculated subcutaneously in the right flank with 5×10^5 tumor cells. When tumors reached an average size of 85 mm^3 dosing was initiated. The dosing regimens in the 4 separate cohorts comprising 10 mice each are listed as follows:
After dosing animals for 7 days, tumors were resected and used to prepare single cell suspensions. Live cells representing tumor and immune cells were stained with cocktails of antibodies targeting multiple immune cell markers (anti-CD45, anti-CD3, anti-CD4, anti-CD8, anti-CD25, anti-FoxP3, anti-PD-1, anti-CD11c) conjugated to different fluorescent tags. The stained cells were fixed in 4% paraformaldehyde and quantified using a multi-color flow cytometer (Fortessa). The data was analyzed with FloJo software.

[5] = 99 days after tumor inoculation

## C[C@H](NC(=O)c1cc(Cl)cnc1Oc1cccc(F)c1)c1ccc(C(=O)O)cc1 [Compound B]
[1]; [5]
  mice still alive: 1 out of 10
  mice tumor free: 1 out of 10
[1]; CT-26 tumors, Compound B 15 mg/kg QD and BID p.o., anti-PD-1 10 mg/kg i.p., n=10/group, FIG. 1
  tumor growth kinetics during the period of dosing: not notably different from the vehicle treated mice
CT26 tumor cells
  growth of re-inoculated CT26 in complete responders: decreased the growth of CT26 relative to naive mice
[2]
  tumor growth kinetics during the period of dosing: less than that of the vehicle group
4T1 mouse breast cancer [3]
  tumor growth kinetics during the period of dosing: decreased relative to the vehicle treated mice
4T1 mouse breast cancer [4]
  tumor growth kinetics during the period of dosing: less than that of the vehicle group and anti-PD1 when dosed alone
CT-26 tumors; FIG. 7b
  percentage of dendritic cells (CD45, CD11c positive): increased percentage
CT-26 tumors; versus vehicle, FIG. 7a
  regulatory T cells (CD45, CD4, FoxP3, CD25 positive): significant decrease
